The values below come from patent US20140045823A1 (Neurocrine Biosciences, Inc., priority 2012, published 2014).

The assay concerns the target T1, human GPR119 (Homo sapiens, UniProt Q8TDV5).
T1 construct: expression vector for human GPR119 cDNA (Acc. No. NP_848566); expressed in transfected cells; Min-6/hGPR119
T1 sequence (Q8TDV5 1-335): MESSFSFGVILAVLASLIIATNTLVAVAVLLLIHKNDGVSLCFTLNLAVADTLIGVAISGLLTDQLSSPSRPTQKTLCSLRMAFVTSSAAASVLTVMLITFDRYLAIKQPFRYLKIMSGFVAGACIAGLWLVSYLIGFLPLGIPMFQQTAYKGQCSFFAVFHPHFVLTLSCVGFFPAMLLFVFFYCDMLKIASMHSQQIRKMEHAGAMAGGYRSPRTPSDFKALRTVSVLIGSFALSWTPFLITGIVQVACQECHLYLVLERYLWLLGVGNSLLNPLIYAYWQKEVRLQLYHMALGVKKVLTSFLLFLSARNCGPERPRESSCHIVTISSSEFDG
The assay can be described thus: AlphaScreen cAMP assay in MIN6 cells stably transfected with human GPR119. In kind it is cell-based. Conditions: Min-6/hGPR119 cells, 45 min at room temperature. As to the method:
The compounds of formula I according to the invention modulate the activity of the G-protein-coupled receptor GPR119. The effect of the compounds on the activation of GPR119 and on the stimulation of intracellular cAMP concentration is determined using the AlphaScreen cAMP Assay Kit (Cat. No. #6760625R) made by PerkinElmer.
MIN6 cells [Miyazaki J et al. Endocrinology. 1990 July; 127(1):126-32] are stably transfected with an expression vector for human GPR119 cDNA (Acc. No. NP_848566). Min-6/hGPR119 cells are cultured in DMEM, 10% FBS, 50 μM β-mercaptoethanol, 0.3 mg/mL Geniticin, 2 mM GlutaMAX at 37° C. 5% CO2. For the assay, the cells are seeded in Optiplates (white, 384-well, 160 W—barcoded, TC, sterile with lid, Cat. No. #6007688 (Perkin Elmer); 10000 cells/well; 50 μl). The plates covered with lids are then incubated for 24 hours at 37° C./5% CO2. After the medium is aspirated from the wells completely, 10 μl of the test compound are added, the compounds are diluted using stimulating buffer (140 mM NaCl, 3.6 mM KCl, 0.5 mM NaH2PO4, 0.5 mM MgSO4, 1.5 mM CaCl2, 10 mM Hepes, 5 mM NaHCO3; pH 7.4. 0.5 mM IBMX and 0.1% BSA, the final DMSO concentration is 1%). After 45 minutes incubation at room temperature (approx. 20° C.), the cAMP concentrations are determined using the AlphaScreen cAMP Assay Kit (Cat. No. #6760625R from PerkinElmer).
In general, EC50 refers to the midpoint of the concentration-response curve. Low readings indicate an effect from little substance, high ones a need for much substance. In the case of `CC(C)(C)OC(=O)N1CCC(N(C(=O)c2cnc(-c3ccc(C(=O)NC[C@H]4CCCC[C@H]4O)c(F)c3)nc2)C2CC2)CC1` (stereo in doubt) [Example 168, 4-[Cyclopropyl-(2-{3-fluoro-4-[(2-hydroxy-cyclohexylmethyl)-carbamoyl]-phenyl}-pyrimidine-5-carbonyl)-amino]-piperidine-1-carboxylic acid tert-butyl ester], the EC50 is 261 nM.

Compound `CC(C)(C)OC(=O)N1CCC(N(C(=O)c2ccc(-c3ccc(S(C)(=O)=O)cc3)nc2)C2CC2)CC1` [Example 1, 4-{Cyclopropyl-[6-(4-methanesulfonyl-phenyl)-pyridine-3-carbonyl]-amino}-piperidine-1-carboxylic acid tert-butyl ester] returned a concentration giving a half-maximal response (EC50) of 82 nM.

As for `CC(C)OC(=O)N1CCC(N(C(=O)c2ccc(-c3ccc(S(C)(=O)=O)cc3)nc2)C2CC2)CC1` [Example 2, 4-{Cyclopropyl-[6-(4-methanesulfonyl-phenyl)-pyridine-3-carbonyl]-amino}-piperidine-1-carboxylic acid isopropyl ester], the EC50 came to 213 nM.

The compound `CC(C)(C)OC(=O)N1CCC(N(C(=O)c2ccc(-c3cn[nH]c3)nc2)C2CC2)CC1` [Example 3, 4-{Cyclopropyl-[6-(1H-pyrazol-4-yl)-pyridine-3-carbonyl]-amino}-piperidine-1-carboxylic acid tert-butyl ester] showed an EC50 of 204 nM.

Turning to `Cn1cc(-c2ccc(C(=O)N(C3CC3)C3CCN(C(=O)OC(C)(C)C)CC3)cn2)ccc1=O` [Example 4, 4-[Cyclopropyl-(1′-methyl-6′-oxo-1′,6′-dihydro-[2,3′]bipyridinyl-5-carbonyl)-amino]-piperidine-1-carboxylic acid tert-butyl ester], the half-maximal effective concentration (EC50) amounted to 1460 nM.

`CC(C)(C)OC(=O)N1CCC(N(C(=O)c2ccc(-c3cnco3)nc2)C2CC2)CC1` [Example 5, 4-[Cyclopropyl-(6-oxazol-5-yl-pyridine-3-carbonyl)-amino]-piperidine-1-carboxylic acid tert-butyl ester] had an EC50 of 62 nM.

Compound `CC(C)(C)OC(=O)N1CCC(N(C(=O)c2ccc(-c3cnco3)nn2)C2CC2)CC1` [Example 6, 4-[Cyclopropyl-(6-oxazol-5-yl-pyridazine-3-carbonyl)-amino]-piperidine-1-carboxylic acid tert-butyl ester] showed an EC50 of 1300 nM.

Take `CC(C)(C)OC(=O)N1CCC(N(C(=O)c2ncc(-c3cnco3)cn2)C2CC2)CC1` [Example 7, 4-[Cyclopropyl-(5-oxazol-5-yl-pyrimidine-2-carbonyl)-amino]-piperidine-1-carboxylic acid tert-butyl ester]: the EC50 was 1200 nM.

`CC(C)(C)OC(=O)N1CCC(N(C(=O)c2ccc(-c3cnco3)cn2)C2CC2)CC1` [Example 8, 4-[Cyclopropyl-(5-oxazol-5-yl-pyridine-2-carbonyl)-amino]-piperidine-1-carboxylic acid tert-butyl ester] displayed an EC50 of 120 nM.

In the case of `CC(C)(C)OC(=O)N1CCC(N(C(=O)c2cnc(-c3cnco3)nc2)C2CC2)CC1` [Example 9, 4-[Cyclopropyl-(2-oxazol-5-yl-pyrimidine-5-carbonyl)-amino]-piperidine-1-carboxylic acid tert-butyl ester], a half-maximal effect (EC50) was put at 224 nM.

Take `Cc1cc(C(=O)N(C2CC2)C2CCN(C(=O)OC(C)(C)C)CC2)cnc1-c1cnco1` [Example 10, 4-[Cyclopropyl-(5-methyl-6-oxazol-5-yl-pyridine-3-carbonyl)-amino]-piperidine-1-carboxylic acid tert-butyl ester]: the EC50 was 748 nM.

Compound `Cc1noc(C)c1-c1ccc(C(=O)N(C2CC2)C2CCN(C(=O)OC(C)(C)C)CC2)cn1` [Example 11, 4-{Cyclopropyl-[6-(3,5-dimethyl-isoxazol-4-yl)-pyridine-3-carbonyl]-amino}-piperidine-1-carboxylic acid tert-butyl ester] registered an EC50 of 136 nM.

For `CC(C)(C)OC(=O)N1CCC(N(C(=O)c2cnc(-c3cnco3)cn2)C2CC2)CC1` [Example 12, 4-[Cyclopropyl-(5-oxazol-5-yl-pyrazine-2-carbonyl)-amino]-piperidine-1-carboxylic acid tert-butyl ester], a half-maximal effect (EC50) was put at 72 nM. This EC50 lies about 1.9-fold lower than the previous one.

As for `Cc1ncoc1-c1ccc(C(=O)N(C2CC2)C2CCN(C(=O)OC(C)(C)C)CC2)cn1` [Example 13, 4-{Cyclopropyl-[6-(4-methyl-oxazol-5-yl)-pyridine-3-carbonyl]amino}-piperidine-1-carboxylic acid tert-butyl ester], it took 132 nM to reach a half-maximal effect (EC50).

For the compound `CC(C)(C)OC(=O)N1CCC(N(C(=O)c2cnc(-c3cnco3)c(F)c2)C2CC2)CC1` [Example 14, 4-[Cyclopropyl-(5-fluoro-6-oxazol-5-yl-pyridine-3-carbonyl)-amino]-piperidine-1-carboxylic acid tert-butyl ester], it took 145 nM to reach a half-maximal effect (EC50).

The compound `COC(=O)c1ccc(-n2cnc(C(=O)N(C3CC3)C3CCN(C(=O)OC(C)(C)C)CC3)c2)c(F)c1` [Example 15, 4-{Cyclopropyl-[1-(2-fluoro-4-methoxycarbonyl-phenyl)-1H-imidazole-4-carbonyl]-amino}-piperidine-1-carboxylic acid tert-butyl ester] returned an EC50 of 157 nM.

`CC(C)(C)OC(=O)N1CCC(N(C(=O)c2cn(-c3ccc(C#N)cc3F)cn2)C2CC2)CC1` [Example 16, 4-{[1-(4-Cyano-2-fluoro-phenyl)-1H-imidazole-4-carbonyl]-cyclopropyl-amino}-piperidine-1-carboxylic acid tert-butyl ester] had an EC50 of 66 nM.

`CC(C)(C)OC(=O)N1CCC(N(C(=O)c2cn(-c3ccc(S(C)(=O)=O)cc3)cn2)C2CC2)CC1` [Example 17, 4-{Cyclopropyl-[1-(4-methanesulfonyl-phenyl)-1H-imidazole-4-carbonyl]-amino}-piperidine-1-carboxylic acid tert-butyl ester]: the EC50 came out at 680 nM.

Regarding `CC(C)(C)OC(=O)N1CCC(N(C(=O)c2noc(-c3ccc(C#N)cc3F)n2)C2CC2)CC1` [Example 18, 4-{[5-(4-Cyano-2-fluoro-phenyl)-[1,2,4]oxadiazole-3-carbonyl]-cyclopropyl-amino}-piperidine-1-carboxylic acid tert-butyl ester], it took 5 nM to reach a half-maximal effect (EC50).

For `CC(C)(C)OC(=O)N1CCC(N(C(=O)c2noc(-c3ccc(S(C)(=O)=O)cc3F)n2)C2CC2)CC1` [Example 19, 4-{Cyclopropyl-[5-(2-fluoro-4-methanesulfonyl-phenyl)-[1,2,4]oxadiazole-3-carbonyl]-amino}-piperidine-1-carboxylic acid tert-butyl ester], the EC50 was 21 nM.

Compound `CC(C)(C)OC(=O)N1CCC(N(C(=O)c2noc(-c3ccc(C#N)c(F)c3)n2)C2CC2)CC1` [Example 20, 4-{[5-(4-Cyano-3-fluoro-phenyl)-[1,2,4]oxadiazole-3-carbonyl]-cyclopropyl-amino}-piperidine-1-carboxylic acid tert-butyl ester] registered an EC50 of 7 nM.

Compound `CC(C)(C)OC(=O)N1CCC(N(C(=O)c2noc(-c3ccc(S(C)(=O)=O)c(F)c3)n2)C2CC2)CC1` [Example 21, 4-{Cyclopropyl-[5-(3-fluoro-4-methanesulfonyl-phenyl)-[1,2,4]oxadiazole-3-carbonyl]-amino}-piperidine-1-carboxylic acid tert-butyl ester] showed an EC50 of 33 nM.

In turn, `CC(C)(C)OC(=O)N1CCC(N(C(=O)c2nc(-c3ccc(Br)cc3F)no2)C2CC2)CC1` [Example 22, 4-{[3-(4-Bromo-2-fluoro-phenyl)-[1,2,4]oxadiazole-5-carbonyl]-cyclopropyl-amino}-piperidine-1-carboxylic acid tert-butyl ester] displayed an EC50 of 210 nM.

On to `CC(C)(C)OC(=O)N1CCC(N(C(=O)c2coc(-c3ccc(C#N)cc3F)n2)C2CC2)CC1` [Example 23, 4-{[2-(4-Cyano-2-fluoro-phenyl)-oxazole-4-carbonyl]-cyclopropyl-amino}-piperidine-1-carboxylic acid tert-butyl ester], for which the EC50 is 18 nM.

`CC(C)(C)OC(=O)N1CCC(N(C(=O)c2coc(-c3ccc(C#N)c(F)c3)n2)C2CC2)CC1` [Example 24, 4-{[2-(4-Cyano-3-fluoro-phenyl)-oxazole-4-carbonyl]-cyclopropyl-amino}-piperidine-1-carboxylic acid tert-butyl ester]: the EC50 turned out to be 42 nM.

As to `CC(C)(C)OC(=O)N1CCC(N(C(=O)c2coc(-c3ccc(S(C)(=O)=O)cc3F)n2)C2CC2)CC1` [Example 25], the EC50 was found to be 97 nM.
